Consider two compounds from patent publication US20230227445A1, “BENZAMIDE COMPOUND AND USE THEREOF” (HUMANWELL HEALTHCARE (GROUP) CO., LTD., priority 2020, published 2023).

Data set [1] concerns ATP/citric acid-stimulated cough in guinea pig. As to the kind of experiment: Efficacy test for ATP/citric acid-stimulated cough in guinea pig. In kind it is in vivo. Conditions: guinea pigs, nasal drops, 0.17 mg/kg to 1.5 mg/kg, ATP/citric acid stimulation. The protocol: Guinea pigs were adaptively fed for 3 days to 7 days before being grouped. When the body weight of the guinea pigs reached 300 g to 400 g, they were numbered and randomly grouped. Compounds or an excipient were administered to guinea pigs by nasal drops 0.25 hour to 24 hours before the start of the cough assessment. The administration dose of the test sample ranged from 0.17 mg/kg to 1.5 mg/kg. For the cough assessment, the guinea pigs were placed in a whole-body volume scan box for adaptation, and then provided with ATP nebulization, and a few minutes later, they were provided with citric acid nebulization. The cough times within 15 minutes and the cough latency were recorded from the beginning of citric acid nebulization.
(§1) The experimental data was statistically analyzed by one-way ANOVA to analyze and compare data of the various groups. The statistical analysis result p<0.05 was regarded as a significant difference. The t-test was employed for difference comparison between any two.

The subject of data set [2] is histamine/citric acid-stimulated cough in guinea pig. Briefly: Efficacy test for histamine/citric acid-stimulated cough in guinea pig. It counts as in vivo. Conditions: guinea pigs, nasal drops, 0.17 mg/kg to 1.5 mg/kg, histamine/citric acid stimulation. How it is done: Guinea pigs were adaptively fed for 3 days to 7 days before being grouped. When the body weight of the guinea pigs reached 300 g to 400 g, they were numbered and randomly grouped.
Compounds or an excipient were administered to guinea pigs by nasal drops 0.25 hour to 24 hours before the start of the cough assessment. The administration dose of the test sample ranged from 0.17 mg/kg to 1.5 mg/kg. For the cough assessment, the guinea pigs were placed in a whole-body volume scan box for adaptation, and then, they were provided with histamine nebulization and then citric acid nebulization. […]
as §1

Data set [3] is described as follows: Pharmacokinetic assay in mouse. It counts as in vivo, ICR mice. Conditions: for pharmacokinetic properties in mouse compared with Reference compound 1 and Reference compound 2 (in words): mouse assay, vs Reference compounds 1 and 2; for AUC(0-t) / Cmax / Tmax / half-life: mouse, plasma, po, male ICR mice, intragastric administration, 10 mg/kg; for half-life: read-out: T½ (converted). How it is done:
For a mouse pharmacokinetic assay, male ICR mice (20 g to 25 g) were selected and fasted overnight. Three mice were intragastrically administered with 10 mg/kg of the corresponding compound. The blood of the mice was collected before the administration and at 15 min, 30 min, 1 h, 2 h, 4 h, 8 h, and 24 h after the administration. The blood samples were centrifuged at 4° C. for 6 minutes at 6,800 g, plasma was collected and stored at −80° C.
The supernatant was mixed with 3 times the amount of water, and an appropriate amount of the mixed solution was taken for LC-MS/MS analysis. The primary pharmacokinetic parameters were analyzed by WinNonlin 7.0 software non-atrioventricular model.

The target in data set [4] is T1, hP2X3 receptor (Homo sapiens, UniProt P56373).
T1 construct: expressed in transfected cells
T1 sequence (P56373 1-397): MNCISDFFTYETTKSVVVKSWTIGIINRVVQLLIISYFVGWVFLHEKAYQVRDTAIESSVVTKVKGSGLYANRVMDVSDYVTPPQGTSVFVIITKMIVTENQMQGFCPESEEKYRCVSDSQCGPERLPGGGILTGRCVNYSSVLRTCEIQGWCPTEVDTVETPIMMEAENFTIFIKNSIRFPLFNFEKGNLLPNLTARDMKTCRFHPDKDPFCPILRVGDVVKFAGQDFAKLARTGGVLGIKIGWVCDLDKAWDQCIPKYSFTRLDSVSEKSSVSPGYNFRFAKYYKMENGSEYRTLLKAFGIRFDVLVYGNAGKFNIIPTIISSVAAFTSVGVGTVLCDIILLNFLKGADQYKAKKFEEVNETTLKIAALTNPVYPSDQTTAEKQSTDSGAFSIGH
Briefly: Antagonistic activity against hP2X3 receptor by FLIPR calcium flow assay. In kind it is cell-based. The note with it: for IC50: human cells stably transfected with hP2X3, agonist α,β-meATP 400 nM; for antagonistic activity against hP2X3 receptor compared with Reference compound 1 (in words): vs Reference compound 1. How it is done:
The antagonistic activity of hP2X3 antagonists against hP2X3 receptor was evaluated by means of FLIPR Calcium 4 Assay Kit (Molecular Devices, R8141) and FLIPR TETRA instrument (Molecular Devices, 0296) by detecting calcium flow signals. 24h before the experiment, human cells, which had been stably transfected with hP2X3 receptors, were plated on a 384-well plate at 2×10^5 cells/mL, with 50 μL of cell suspension per well, and the plate was cultured in an incubator (37° C., 5% CO2) for 16 h to 24 h. The test compound solution (20 to 50 mM DMSO stock solution) with a concentration of 180 times the required concentration was prepared using DMSO. The stock solution was added to the 384-well plate at 500 nL per well, supplemented with 30 μL of FLIPR Assay buffer (1×HBSS+2 mM CaCl2 20 mM HEPES containing 1.26 mM Ca^2+). The 384-well plate was shaken for 20 to 40 min to mix evenly. An agonist (α, β-meATP) with a concentration of 3 times the required concentration (required final concentration was 400 nM) was prepared with FLIPR Assay buffer, and was added to another 384-well plate at 45 μL per well. The culture plate, on which the cells were plated one day ago, was taken, the cell supernatant was sucked and discarded, each well was added with 30 μL of Dye (FLIPR® Calcium 4 Assay Kit, diluted with FLIPR buffer), and then the plate was incubated for 1h. 15 μL of compound was added to each well of cells (using FLIPR sample injector). After 15 minutes, 22.5 μL of the agonist was added to each well, and the fluorescence signal (exciting light wavelength ranging from 470 nm to 495 nm, and emission wavelength ranging from 515 nm to 575 nm) was detect. […] An inhibition effect curve of the compound was fitted on the software GraphpadPrism6, and the IC50 value was calculated.

Data set [5] is described as follows: Pharmacokinetic assay in rat. In kind it is in vivo, SD rats. The protocol: For a rat pharmacokinetic assay, male SD rats (180 g to 240 g) were selected and fasted overnight. Three rats were intragastrically administered with 10 mg/kg of the corresponding compound. The blood of the rats was collected before the administration and at 15 min, 30 min, 1 h, 2 h, 4 h, 8 h, and 24 h after the administration. The blood samples were centrifuged at 4° C. for 6 minutes at 8,000 r/min, and plasma was collected and stored at −20° C. Plasma at each time point was taken, and added with 3 to 5 times the amount of an internal standard-containing acetonitrile solution to mix, and the mixture was vortex mixed for 1 minute, and centrifuged at 4° C. for 10 minutes at 13,000 r/min. The supernatant was taken and mixed with 3 times the amount of water, and an appropriate amount of the mixed solution was taken for LC-MS/MS analysis. The primary pharmacokinetic parameters were analyzed by WinNonlin 7.0 software non-atrioventricular model.

In data set [6] the test system is rat taste. Briefly: Taste test in rat (water vs 0.3 mM aqueous quinine solution intake). It counts as in vivo, SD rats. The note with it: for Water/aqueous quinine solution (ratio of water intake to aqueous quinine solution intake): SD rats, 30 mg/kg i.p, 0.3 mM quinine, 15 min supply half an hour after administration; for interference on rat taste compared with Reference compound 1 (in words): vs positive reference compound. How it is done: SD rats were administered with the corresponding compound after 3 days of overnight water prohibition training. Each rat was supplied with 1 bottle of water and 1 bottle of 0.3 mM aqueous quinine solution half an hour after the administration. After 15 min of water supply, the bottles were removed. The intake amount of water and the intake amount of the 0.3 mM aqueous quinine solution were measured, respectively. The taste influence of the compound on SD rats was evaluated based on the difference between the intake amount of water and the intake amount of the aqueous quinine solution.

Data set [7] is described as follows: Pharmacokinetic assay in canine. It counts as in vivo, Beagle dogs. The protocol:
For a canine pharmacokinetic assay, male Beagle dogs (8 kg to 10 kg) were selected and fasted overnight. Three Beagle dogs were intragastrically administered with 5 mg/kg of the corresponding compound. Another 3 Beagle dogs were intravenously administered with 1 mg/kg of the corresponding compound. The blood of the dogs was collected before the administration and at 15 min, 30 min, 1 h, 2 h, 4 h, 8 h, and 24 h after the administration. The blood samples were centrifuged at 4° C. for 6 minutes at 8,000 r/min, plasma was collected and stored at −20° C. […] The supernatant was taken and mixed with 3 times the amount of water, and an appropriate amount of the mixed solution was taken for LC-MS/MS analysis. The primary pharmacokinetic parameters were analyzed by WinNonlin 7.0 software non-atrioventricular model.

Setting [8] is: rat, plasma, po, male SD rats, intragastric administration, 10 mg/kg.
The mark [9] stands for this setting: dog, plasma, po, male Beagle dogs, intragastric administration, 5 mg/kg.
[10] abbreviates: dog, plasma, male Beagle dogs, intravenous administration, 1 mg/kg.

One may read the AUC(0-t) as the area under the concentration-time curve up to a stated or last time point. A lower AUC(0-t) goes with low exposure. A word on the Cmax: it is the maximum level reached in the sampled fluid or tissue. By Tmax is commonly meant the time from dosing to the highest level. By IC50 is commonly meant the concentration at which inhibition is half-maximal. In general, clearance refers to a measure of how efficiently the substance is removed, as volume per time. Read a low clearance as a low capacity for elimination.

Turning to `Cc1cnc(-c2cc(O[C@@H]3CCOC3)cc(C(=O)N[C@H](C)c3cnc(C(F)(F)F)nc3)c2F)s1` [Compound I-1, 2-fluoro-3-(5-methylthiazol-2-yl)-5-(((R)-tetrahydrofuran-3-yl)oxy)-N—((R)-1-(2-(trifluoromethyl)pyrimidin-5-yl)ethyl)benzamide], in data set [1], the “Average cough times within 15 min” value is 6.5 and the “Cough inhibition rate vs. solvent” value is listed as 67.2%. In addition, in data set [2], the “Average cough times within 15 min” value was 10.8 and the “Cough inhibition rate vs. solvent” value was 59.4%. Besides, in data set [3], the “pharmacokinetic properties in mouse compared with Reference compound 1 and Reference compound 2 (in words)” value is listed as “significantly improved pharmacokinetic properties”; the AUC(0-t) turned out to be 12100 ng·h/mL; the Cmax was 1550 ng/mL; the Tmax was determined as 2 h. The half-life in data set [3] is 2.3 h. Moreover, in data set [4], the 50% inhibitory concentration (IC50) came out at 83 nM and the “antagonistic activity against hP2X3 receptor compared with Reference compound 1 (in words)” value was “better antagonistic activity”. In data set [5] (rat model, vs reference compound 1), the “pharmacokinetic properties in rat compared with reference compound 1 (in words)” value was “improved to certain extent”. In addition, in data set [5] (setting [8]), the AUC(0-t) stood at 5940 ng·h/mL, the highest level (Cmax) was 569 ng/mL and the Tmax was 4 h. For the same compound, the half-life in data set [5] (rat, plasma, po, male SD rats, intragastric administration, 10 mg/kg, read-out: T½ (converted)) was 3.61 h. Further, in data set [6], the “Water/aqueous quinine solution (ratio of water intake to aqueous quinine solution intake)” value worked out at 18.2 and the “interference on rat taste compared with Reference compound 1 (in words)” value is on record as “significantly less interference on rat taste”.
As to `Cc1cnc(-c2cc(O[C@H](C)[C@@H](C)O)cc(C(=O)N[C@H](C)c3cnc(C(F)(F)F)nc3)c2F)s1` [Compound I-30, 2-fluoro-5-(((2R, 3R)-3-hydroxybutan-2-yl)oxy)-3-(5-methylthiazol-2-yl)-N—((R)-1-(2-(trifluoromethyl)pyrimidin-5-yl)ethyl)benzamide], in data set [1], the “Average cough times within 15 min” value is 7.1 and the “Cough inhibition rate vs. solvent” value is reported as 64.1%. In data set [2], the “Average cough times within 15 min” value was 9.8 and the “Cough inhibition rate vs. solvent” value amounted to 63.2%. Also, the “half-life (in words)” value in data set [7] (canine) is reported as “long half-life”. The “clearance rate (in words)” value in data set [7] (canine, intravenous administration) is reported as “low clearance rate”. Besides, the “exposure (in words)” value in data set [7] (canine, oral and intravenous administrations) is “high exposure”. The “pharmacokinetic characteristics compared with the reference compound (in words)” value in data set [7] (canine, vs reference compound) was “better pharmacokinetic characteristics”. Besides, in data set [7] (setting [9]), the AUC(0-t) is 12600 ng·h/mL, the Cmax was 1030 ng/mL, the time to peak (Tmax) was found to be 1 h and the half-life was 13.4 h. For the same compound, in data set [7] (setting [10]), the AUC(0-t) worked out at 2820 ng·h/mL, the clearance is 4.33 mL/min/kg and the half-life is 13 h. Also, the Vd in data set [7] (dog, plasma, male Beagle dogs, intravenous administration, 1 mg/kg, read-out: Vz) stood at 4.88 L/kg. Besides, in data set [3], the “pharmacokinetic properties in mouse compared with Reference compound 1 and Reference compound 2 (in words)” value is listed as “significantly improved pharmacokinetic properties”; the AUC(0-t) turned out to be 13800 ng·h/mL; the Cmax was found to be 2950 ng/mL; the Tmax worked out at 1 h. Moreover, the half-life in data set [3] is 2.35 h. In data set [4], the IC50 is 48 nM and the “antagonistic activity against hP2X3 receptor compared with Reference compound 1 (in words)” value is on record as “better antagonistic activity”. In addition, in data set [6], the “Water/aqueous quinine solution (ratio of water intake to aqueous quinine solution intake)” value was determined as 22.9 and the “interference on rat taste compared with Reference compound 1 (in words)” value is on record as “significantly less interference on rat taste”.
